Assay results published in PubChem BioAssay AID330 (DTP/NCI, 2004).
“And” between values parts separate entries of the source, which are not always exact repeats. Equal entries are not always repeated. Toxic doses and inconclusive results are not listed. The calls were made as follows: active = survival T/C of 150% or more; inactive = T/C below 125% in these data.

Test system: P388 leukemia ip, CD2F1 mice, survival T/C
Assay: NCI In Vivo Anticancer Drug Screen. Data for tumor model P388 Leukemia (intraperitoneal) in CD2F1 (CDF1) mice
Conditions: endpoint: median survival time, higher = longer survival
In short: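 Mice carrying the transplanted tumor received test compound or vehicle. Survival was recorded in each group, and the value is the treated-group measurement divided by that of the vehicle-treated control group.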

[1] = dose: 12.5 mg/kg/injection, schedule: Q01DX009 (ip), vehicle: saline with Tween-80
[2] = dose: 25.0 mg/kg/injection, schedule: Q01DX009 (ip), vehicle: saline with Tween-80
[3] = dose: 50.0 mg/kg/injection, schedule: Q01DX009 (ip), vehicle: saline with Tween-80
[4] = dose: 60.0 mg/kg/injection, schedule: Q01DX005 (ip), vehicle: Klucel (hydroxypropylcellulose) (HPC)
[5] = dose: 120.0 mg/kg/injection, schedule: Q01DX005 (ip), vehicle: Klucel (hydroxypropylcellulose) (HPC)
[6] = dose: 240.0 mg/kg/injection, schedule: Q01DX005 (ip), vehicle: Klucel (hydroxypropylcellulose) (HPC)
[7] = dose: 50.0 mg/kg/injection, schedule: Q01DX005 (ip), vehicle: saline with Tween-80
[8] = dose: 100.0 mg/kg/injection, schedule: Q01DX005 (ip), vehicle: saline with Tween-80
[9] = dose: 200.0 mg/kg/injection, schedule: Q01DX005 (ip), vehicle: saline with Tween-80

Measured: T/C

CC1(OC(=O)c2ccccc2)CC2(CCCCC2)N=N1 (configuration not stated)
inactive: [1] 113 % of control | [2] 105 % of control | [3] 112 % of control | dose: 100.0 mg/kg/injection, schedule: Q01DX009 (ip), vehicle: saline with Tween-80 107 % of control | dose: 200.0 mg/kg/injection, schedule: Q01DX009 (ip), vehicle: saline with Tween-80 105 % of control

O=C1C(=O)N(c2ccccc2)[C@@]2(c3ccccc3)C(=Nc3ccccc3)OC(c3ccccc3)=C12
inactive: [4] 90 % of control | [5] 90 % of control | [6] 88 % of control

CCCC(NC(N)=O)C(CCC)NC(N)=O (configuration not stated)
inactive: [3] 102 % of control

CCn1ncc(N=O)c1N
inactive: dose: 60.0 mg/kg/injection, schedule: Q01DX005 (ip), vehicle: saline 104 % of control and 100 % of control | dose: 120.0 mg/kg/injection, schedule: Q01DX005 (ip), vehicle: saline 92 % of control and 104 % of control | dose: 240.0 mg/kg/injection, schedule: Q01DX005 (ip), vehicle: saline 90 % of control and 108 % of control

Cc1[nH]ccc(=O)c1OC(=O)C12CC3CC(CC(C3)C1)C2
inactive: dose: 50.0 mg/kg/injection, schedule: Q01DX005 (ip), vehicle: Klucel (hydroxypropylcellulose) (HPC) 94 % of control and 98 % of control | dose: 100.0 mg/kg/injection, schedule: Q01DX005 (ip), vehicle: Klucel (hydroxypropylcellulose) (HPC) 91 % of control and 97 % of control | dose: 200.0 mg/kg/injection, schedule: Q01DX005 (ip), vehicle: Klucel (hydroxypropylcellulose) (HPC) 101 % of control and 95 % of control | dose: 400.0 mg/kg/injection, schedule: Q01DX005 (ip), vehicle: Klucel (hydroxypropylcellulose) (HPC) 103 % of control and 98 % of control

CCCCOc1ccc(Nc2c3ccccc3nc3ccccc23)cc1
inactive: [1] 98 % of control and 91 % of control | [2] 98 % of control and 106 % of control | [3] 121 % of control

CC(C)C1[C@H]2OC(=O)[C@@H]1C1CCC3CN(C)C2C31C (some centres not stated)
inactive: dose: 1.25 mg/kg/injection, schedule: Q01DX005 (ip), vehicle: Klucel (hydroxypropylcellulose) (HPC) 99 % of control | dose: 2.5 mg/kg/injection, schedule: Q01DX005 (ip), vehicle: Klucel (hydroxypropylcellulose) (HPC) 99 % of control | dose: 5.0 mg/kg/injection, schedule: Q01DX005 (ip), vehicle: Klucel (hydroxypropylcellulose) (HPC) 96 % of control | dose: 10.0 mg/kg/injection, schedule: Q01DX005 (ip), vehicle: Klucel (hydroxypropylcellulose) (HPC) 95 % of control

CC=O
inactive: dose: 0.5 % in 0.5 ml injection vol, schedule: Q01DX009 (ip), vehicle: water 100 % of control and 103 % of control and 109 % of control | dose: 1.0 % in 0.5 ml injection vol, schedule: Q01DX009 (ip), vehicle: water 104 % of control and 112 % of control | dose: 2.0 % in 0.5 ml injection vol, schedule: Q01DX009 (ip), vehicle: water 117 % of control

CN(C)[C@@H]1C(=O)C(C(=O)NCNc2nc3n[nH]nc3c(=O)[nH]2)=C(O)[C@@]2(O)C(=O)C3=C(O)c4c(O)cccc4[C@@](C)(O)[C@H]3C[C@@H]12
inactive: dose: 50.0 mg/kg/injection, schedule: Q04DX003 (ip), vehicle: saline 102 % of control | dose: 100.0 mg/kg/injection, schedule: Q04DX003 (ip), vehicle: saline 100 % of control | dose: 200.0 mg/kg/injection, schedule: Q04DX003 (ip), vehicle: saline 107 % of control | dose: 400.0 mg/kg/injection, schedule: Q04DX003 (ip), vehicle: saline 111 % of control

OC(CCl)C(O)C(O)C(O)CCl (configuration not stated)
inactive: dose: 100.0 mg/kg/injection, schedule: Q04DX003 (ip), vehicle: saline with Tween-80 109 % of control | dose: 200.0 mg/kg/injection, schedule: Q04DX003 (ip), vehicle: saline with Tween-80 100 % of control | dose: 400.0 mg/kg/injection, schedule: Q04DX003 (ip), vehicle: saline with Tween-80 113 % of control

O=C(N=Nc1ccccc1)Nc1ccc(Br)cc1
inactive: [7] 101 % of control | [8] 101 % of control | [9] 104 % of control

Cn1c(=O)ccc2c(=O)c3c(ccc4ccccc43)oc21
inactive: [7] 94 % of control | [8] 92 % of control | [9] 91 % of control

O=C(COc1cccc2oc3ccccc3c(=O)c12)N/N=C/c1ccc(N(CCCl)CCCl)cc1
inactive: [4] 97 % of control | [5] 96 % of control | [6] 95 % of control
